Measured values from patent US9139529B2, “Substituted quinoxalines as sodium channel modulators” (VERTEX PHARMACEUTICALS INCORPORATED, priority 2013, dated 2015).

molecular target: human Nav1.8 (Homo sapiens (Human), UniProt Q9Y5Y9); test: E-VIPR optical membrane potential assay with electrical stimulation; type: cell-based; settings: HEK cells expressing human Nav1.8
Text: Assays for Detecting and Measuring NaV Inhibition Properties of Compounds E-VIPR Optical Membrane Potential Assay Method with Electrical Stimulation
Sodium channels are voltage-dependent proteins that can be activated by inducing membrane voltage changes by applying electric fields. The electrical stimulation instrument and methods of use are described in Ion Channel Assay Methods PCT/US01/21652, herein incorporated by reference and are referred to as E-VIPR. The instrument comprises a microtiter plate handler, an optical system for exciting the coumarin dye while simultaneously recording the coumarin and oxonol emissions, a waveform generator, a current- or voltage-controlled amplifier, and a device for inserting electrodes in well. Under integrated computer control, this instrument passes user-programmed electrical stimulus protocols to cells within the wells of the microtiter plate.
24 hours before the assay on E-VIPR, HEK cells expressing human Nav1.8 were seeded in 384-well poly-lysine coated plates at 15,000-20,000 cells per well. HEK cells were grown in media (exact composition is specific to each cell type and NaV subtype) supplemented with 10% FBS (Fetal Bovine Serum, qualified; GibcoBRL #16140-071) and 1% Pen-Strep (Penicillin-Streptomycin; GibcoBRL #15140-122). Cells were grown in vented cap flasks, in 90% humidity and 5% CO2.
1) Pre-spotted compounds (in neat DMSO) into compound plates. Vehicle control (neat DMSO), the positive control (20 mM DMSO stock tetracaine, 125 μM final in assay) and test compounds were added to each well at 160× desired final concentration in neat DMSO. Final compound plate volume was 80 μL (80-fold intermediate dilution from 1 μL DMSO spot; 160-fold final dilution after transfer to cell plate). Final DMSO concentration for all wells in assay was 0.625%.
2) Prepared Hexyl Dye Solution.
3) Prepared cell plates. On the day of the assay, medium was aspirated and cells were washed three times with 100 μL of Bath1 Solution, maintaining 25 μL residual volume in each well.
4) Dispensed 25 μL per well of Hexyl Dye Solution into cell plates. Incubated for 20-35 minutes at room temp or ambient conditions.
5) Dispensed 80 μL per well of Bath1 into compound plates. Acid Yellow-17 (1 mM) was added and Potassium Chloride was altered from 4.5 to 20 mM depending on the NaV subtype and assay sensitivity.
6) Washed cell plates three times with 100 μL per well of Bath1, leaving 25 μL of residual volume. Then transferred 25 uL per well from Compound Plates to Cell Plates. Incubated for 20-35 minutes at room temp/ambient condition.
7) Read Plate on E-VIPR. Used the current-controlled amplifier to deliver stimulation wave pulses for 10 seconds and a scan rate of 200 Hz. A pre-stimulus recording was performed for 0.5 seconds to obtain the un-stimulated intensities baseline. The stimulatory waveform was followed by 0.5 seconds of post-stimulation recording to examine the relaxation to the resting state.
Data was analyzed and reported as normalized ratios of emission intensities measured in the 460 nm and 580 nm channels. The response as a function of time was reported as the ratios obtained using the following formula: […]
The data was further reduced by calculating the initial (Ri) and final (Rf) ratios. These were the average ratio values during part or all of the pre-stimulation period, and during sample points during the stimulation period. The response to the stimulus R=Rf/Ri was then calculated and reported as a function of time.
Control responses were obtained by performing assays in the presence of a compound with the desired properties (positive control), such as tetracaine, and in the absence of pharmacological agents (negative control). Responses to the negative (N) and positive (P) controls were calculated as above. The compound antagonist activity A is defined as:
[formula] where R is the ratio response of the test compound

Chain of human Nav1.8 (Q9Y5Y9 whole entry): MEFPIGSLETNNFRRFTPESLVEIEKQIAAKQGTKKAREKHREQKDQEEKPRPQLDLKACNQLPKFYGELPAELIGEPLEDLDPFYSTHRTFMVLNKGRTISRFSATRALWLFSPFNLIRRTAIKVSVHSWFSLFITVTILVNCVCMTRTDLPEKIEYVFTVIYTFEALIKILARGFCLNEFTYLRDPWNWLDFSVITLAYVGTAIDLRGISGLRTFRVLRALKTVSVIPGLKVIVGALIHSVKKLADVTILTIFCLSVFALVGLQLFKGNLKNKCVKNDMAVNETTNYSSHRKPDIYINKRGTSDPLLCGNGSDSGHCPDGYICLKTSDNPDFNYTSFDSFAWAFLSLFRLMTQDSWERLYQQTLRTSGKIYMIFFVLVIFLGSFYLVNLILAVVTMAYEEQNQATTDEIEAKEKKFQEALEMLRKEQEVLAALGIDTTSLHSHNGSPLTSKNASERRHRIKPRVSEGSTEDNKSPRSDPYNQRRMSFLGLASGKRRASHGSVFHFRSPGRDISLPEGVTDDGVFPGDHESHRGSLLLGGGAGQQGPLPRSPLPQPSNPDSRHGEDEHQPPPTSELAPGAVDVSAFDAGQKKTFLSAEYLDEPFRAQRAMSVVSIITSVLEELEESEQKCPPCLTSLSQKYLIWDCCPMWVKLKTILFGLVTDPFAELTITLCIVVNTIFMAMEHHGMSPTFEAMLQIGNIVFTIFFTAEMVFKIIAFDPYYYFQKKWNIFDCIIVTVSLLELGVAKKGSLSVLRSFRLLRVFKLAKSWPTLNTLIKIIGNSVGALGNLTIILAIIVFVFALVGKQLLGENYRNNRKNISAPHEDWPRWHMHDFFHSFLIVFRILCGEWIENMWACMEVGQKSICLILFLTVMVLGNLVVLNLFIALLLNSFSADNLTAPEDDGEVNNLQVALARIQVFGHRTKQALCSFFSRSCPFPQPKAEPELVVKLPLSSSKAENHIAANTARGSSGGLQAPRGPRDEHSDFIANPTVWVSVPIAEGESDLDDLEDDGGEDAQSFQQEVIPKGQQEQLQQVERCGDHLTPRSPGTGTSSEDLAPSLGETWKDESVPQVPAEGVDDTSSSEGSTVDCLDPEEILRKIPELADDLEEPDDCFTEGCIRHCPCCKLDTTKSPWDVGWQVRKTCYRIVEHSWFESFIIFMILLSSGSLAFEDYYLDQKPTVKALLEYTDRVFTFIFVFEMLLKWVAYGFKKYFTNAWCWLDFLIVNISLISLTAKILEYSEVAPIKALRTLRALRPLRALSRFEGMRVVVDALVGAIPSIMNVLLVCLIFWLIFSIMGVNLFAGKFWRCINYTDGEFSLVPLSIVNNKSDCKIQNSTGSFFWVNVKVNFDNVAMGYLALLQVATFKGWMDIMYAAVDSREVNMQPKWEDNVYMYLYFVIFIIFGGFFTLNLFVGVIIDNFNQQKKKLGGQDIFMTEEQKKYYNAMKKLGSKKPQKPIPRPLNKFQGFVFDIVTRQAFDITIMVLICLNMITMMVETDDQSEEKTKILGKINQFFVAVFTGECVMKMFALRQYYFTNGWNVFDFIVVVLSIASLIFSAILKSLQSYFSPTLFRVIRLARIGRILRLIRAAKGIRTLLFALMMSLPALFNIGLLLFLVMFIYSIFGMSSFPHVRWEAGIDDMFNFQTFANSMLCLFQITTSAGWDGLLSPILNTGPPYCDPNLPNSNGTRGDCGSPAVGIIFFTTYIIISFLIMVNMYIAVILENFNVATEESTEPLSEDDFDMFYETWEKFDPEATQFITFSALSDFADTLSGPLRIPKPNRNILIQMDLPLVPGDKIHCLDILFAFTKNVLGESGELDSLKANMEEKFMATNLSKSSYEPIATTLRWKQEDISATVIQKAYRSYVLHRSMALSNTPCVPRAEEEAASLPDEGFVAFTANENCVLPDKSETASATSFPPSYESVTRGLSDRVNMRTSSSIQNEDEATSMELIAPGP

SMILES | IC50 [nM]
COc1ccc(Oc2nc3ccccc3cc2C(=O)Nc2cccc(S(N)(=O)=O)c2)cc1F [Compound 62, 2-(3-fluoro-4-methoxyphenoxy)-N-(3-sulfamoylphenyl)quinoline-3-carboxamide] | 30
COc1cc(F)ccc1Oc1nc2ccccc2nc1C(=O)Nc1cccnc1 [Compound 54, 3-(4-fluoro-2-methoxyphenoxy)-N-(pyridin-3-yl)quinoxaline-2-carboxamide] | 80
NS(=O)(=O)c1cccc(NC(=O)c2nc3ccccc3nc2Oc2ccc(F)cc2)c1 [Compound 1, 3-(4-fluorophenoxy)-N-(3-sulfamoylphenyl)quinoxaline-2-carboxamide] | 27
NS(=O)(=O)c1cccc(NC(=O)c2nc3ccccc3nc2Oc2ccccc2)c1 [Compound 13, 3-phenoxy-N-(3-sulfamoylphenyl)quinoxaline-2-carboxamide] | 92
COc1cc(F)ccc1Oc1nc2ccccc2nc1C(=O)Nc1nc(C(=O)O)cs1 [Compound 37, 2-(3-(4-Fluoro-2-methoxyphenoxy)quinoxaline-2-carboxamido)thiazole-4-carboxylic acid] | 450
COc1cc(F)ccc1Oc1nc2ccccc2nc1C(=O)Nc1cccc(C(N)=O)c1 [Compound 59, N-(3-carbamoylphenyl)-3-(4-fluoro-2-methoxyphenoxy)quinoxaline-2-carboxamide] | 180

Compounds with a lower IC50, results first:

IC50 [nM] | SMILES
1 | COc1cc(F)ccc1Oc1nc2ccccc2nc1C(=O)Nc1cccc(S(C)(=O)=O)c1 [Compound 46, 3-(4-fluoro-2-methoxyphenoxy)-N-(3-(methylsulfonyl)phenyl)quinoxaline-2-carboxamide]
14 | Cc1cc(Cl)ccc1Oc1nc2ccccc2cc1C(=O)Nc1cccc(S(N)(=O)=O)c1 [Compound 71, 2-(4-chloro-2-methylphenoxy)-N-(3-sulfamoylphenyl)quinoline-3-carboxamide]
16 | COc1cc(F)ccc1Oc1nc2ccccc2nc1C(=O)Nc1ccnc(C(=O)O)c1 [Compound 34, 4-(3-(4-fluoro-2-methoxyphenoxy)quinoxaline-2-carboxamido)picolinic acid]
